Assay results reported in publication PMC8213057, “Targeting ALK2: An Open Science Approach to Developing Therapeutics for the Treatment of Diffuse Intrinsic Pontine Glioma” (Journal of Medicinal Chemistry, 2020).

How the values were obtained:
[1] = target: TIE2/TEK (Homo sapiens, UniProt Q02763); assay: biochemical; conditions: read-out: % enzyme activity, 1 μM; Run 1, Run 2
[2] = target: RSK3 (Homo sapiens, UniProt Q15349); assay: biochemical; conditions: read-out: % enzyme activity, 1 μM; Run 1, Run 2
[3] = target: FGFR3 (Homo sapiens, UniProt P22607); assay: biochemical; conditions: read-out: % enzyme activity, 1 μM; Run 1, Run 2
[4] = target: T1, c-MER (Homo sapiens, UniProt Q12866); assay: biochemical; conditions: read-out: % enzyme activity, 1 μM; Run 1, Run 2
T1 sequence (Q12866 21-999): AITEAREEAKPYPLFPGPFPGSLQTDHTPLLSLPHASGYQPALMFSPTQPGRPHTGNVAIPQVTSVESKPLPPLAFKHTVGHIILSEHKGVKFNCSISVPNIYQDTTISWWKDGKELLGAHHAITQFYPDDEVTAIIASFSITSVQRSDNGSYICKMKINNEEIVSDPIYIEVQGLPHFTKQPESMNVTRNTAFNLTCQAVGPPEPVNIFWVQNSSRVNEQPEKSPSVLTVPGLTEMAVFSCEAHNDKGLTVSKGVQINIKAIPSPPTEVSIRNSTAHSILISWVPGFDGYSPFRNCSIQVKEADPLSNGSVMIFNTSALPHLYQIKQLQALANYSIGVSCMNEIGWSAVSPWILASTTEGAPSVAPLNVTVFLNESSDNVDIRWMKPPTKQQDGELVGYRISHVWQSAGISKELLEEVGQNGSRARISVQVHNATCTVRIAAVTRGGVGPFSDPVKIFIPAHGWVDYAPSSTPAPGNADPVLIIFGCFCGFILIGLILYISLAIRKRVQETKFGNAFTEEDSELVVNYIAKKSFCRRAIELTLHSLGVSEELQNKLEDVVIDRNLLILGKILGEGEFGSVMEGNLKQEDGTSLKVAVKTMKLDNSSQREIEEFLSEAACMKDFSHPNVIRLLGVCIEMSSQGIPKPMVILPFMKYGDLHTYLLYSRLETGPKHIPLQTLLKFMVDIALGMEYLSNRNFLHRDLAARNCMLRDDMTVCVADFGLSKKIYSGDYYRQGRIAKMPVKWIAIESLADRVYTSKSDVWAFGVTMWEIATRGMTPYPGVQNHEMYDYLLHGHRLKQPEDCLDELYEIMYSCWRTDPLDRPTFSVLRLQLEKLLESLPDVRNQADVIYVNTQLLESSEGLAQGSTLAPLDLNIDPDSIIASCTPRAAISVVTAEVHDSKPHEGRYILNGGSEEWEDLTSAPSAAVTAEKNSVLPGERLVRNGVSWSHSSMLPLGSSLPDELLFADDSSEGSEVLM

[5] = target: T2, LATS2 (Homo sapiens, UniProt Q9NRM7); assay: biochemical; conditions: read-out: % enzyme activity, 1 μM; Run 1, Run 2
T2 sequence (Q9NRM7 1-1088): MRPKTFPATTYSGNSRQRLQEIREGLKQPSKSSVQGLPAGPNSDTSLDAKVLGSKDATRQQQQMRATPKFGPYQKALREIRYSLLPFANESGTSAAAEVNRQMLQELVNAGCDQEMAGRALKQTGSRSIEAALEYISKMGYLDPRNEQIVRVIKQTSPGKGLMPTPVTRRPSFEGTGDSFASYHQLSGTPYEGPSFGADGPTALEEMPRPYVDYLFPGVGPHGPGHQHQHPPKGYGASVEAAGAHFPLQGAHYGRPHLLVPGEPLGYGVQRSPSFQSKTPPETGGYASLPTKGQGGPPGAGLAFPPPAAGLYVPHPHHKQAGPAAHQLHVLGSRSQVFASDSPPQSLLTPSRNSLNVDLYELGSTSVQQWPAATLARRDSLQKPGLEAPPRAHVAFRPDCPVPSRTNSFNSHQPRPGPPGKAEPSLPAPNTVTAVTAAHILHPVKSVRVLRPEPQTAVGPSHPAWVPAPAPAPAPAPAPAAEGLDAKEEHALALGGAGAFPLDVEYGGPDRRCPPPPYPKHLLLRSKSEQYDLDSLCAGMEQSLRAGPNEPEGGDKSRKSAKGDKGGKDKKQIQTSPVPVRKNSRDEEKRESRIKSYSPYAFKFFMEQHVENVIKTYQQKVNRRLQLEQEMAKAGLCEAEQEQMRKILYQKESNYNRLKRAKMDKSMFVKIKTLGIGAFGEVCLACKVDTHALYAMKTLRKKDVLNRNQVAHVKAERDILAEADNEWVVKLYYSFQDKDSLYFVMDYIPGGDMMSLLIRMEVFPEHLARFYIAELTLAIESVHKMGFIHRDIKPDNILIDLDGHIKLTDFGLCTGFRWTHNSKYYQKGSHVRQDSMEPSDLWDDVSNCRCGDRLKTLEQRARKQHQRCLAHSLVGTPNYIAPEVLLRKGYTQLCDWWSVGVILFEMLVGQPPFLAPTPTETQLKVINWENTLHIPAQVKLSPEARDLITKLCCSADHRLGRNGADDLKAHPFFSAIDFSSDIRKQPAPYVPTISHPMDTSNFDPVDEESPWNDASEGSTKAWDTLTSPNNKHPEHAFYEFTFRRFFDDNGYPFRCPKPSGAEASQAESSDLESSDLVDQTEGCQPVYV

[6] = target: CDK9/cyclin T2 (Homo sapiens, UniProt P50750); conditions: 1 μM; Run 1, Run 2
[7] = target: AKT3 (Homo sapiens, UniProt Q9Y243); conditions: 1 μM; Run 1, Run 2
Chain of AKT3 (Q9Y243 whole entry): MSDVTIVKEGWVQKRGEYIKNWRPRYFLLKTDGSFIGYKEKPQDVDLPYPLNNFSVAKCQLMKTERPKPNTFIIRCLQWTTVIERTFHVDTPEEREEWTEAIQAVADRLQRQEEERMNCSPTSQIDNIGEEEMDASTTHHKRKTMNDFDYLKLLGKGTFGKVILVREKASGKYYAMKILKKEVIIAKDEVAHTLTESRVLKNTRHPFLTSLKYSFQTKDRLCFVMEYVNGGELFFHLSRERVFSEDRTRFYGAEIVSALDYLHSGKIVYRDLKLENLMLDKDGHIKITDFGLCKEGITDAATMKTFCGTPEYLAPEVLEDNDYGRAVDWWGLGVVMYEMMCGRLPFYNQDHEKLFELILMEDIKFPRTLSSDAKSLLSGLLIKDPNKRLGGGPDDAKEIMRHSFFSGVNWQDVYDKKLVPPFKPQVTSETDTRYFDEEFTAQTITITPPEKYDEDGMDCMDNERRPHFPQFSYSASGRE

Chain of CDK9/cyclin T2 (P50750 whole entry): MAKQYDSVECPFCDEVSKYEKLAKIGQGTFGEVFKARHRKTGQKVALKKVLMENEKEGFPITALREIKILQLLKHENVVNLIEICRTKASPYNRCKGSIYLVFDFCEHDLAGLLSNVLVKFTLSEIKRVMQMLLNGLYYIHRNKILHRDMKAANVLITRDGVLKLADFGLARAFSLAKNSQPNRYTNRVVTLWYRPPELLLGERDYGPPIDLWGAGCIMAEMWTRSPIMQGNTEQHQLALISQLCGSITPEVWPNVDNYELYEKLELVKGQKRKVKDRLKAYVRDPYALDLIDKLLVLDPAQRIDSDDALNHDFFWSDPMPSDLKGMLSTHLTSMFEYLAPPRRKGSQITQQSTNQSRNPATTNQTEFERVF
Chain of CDK9/cyclin T2 (O60583 whole entry partner): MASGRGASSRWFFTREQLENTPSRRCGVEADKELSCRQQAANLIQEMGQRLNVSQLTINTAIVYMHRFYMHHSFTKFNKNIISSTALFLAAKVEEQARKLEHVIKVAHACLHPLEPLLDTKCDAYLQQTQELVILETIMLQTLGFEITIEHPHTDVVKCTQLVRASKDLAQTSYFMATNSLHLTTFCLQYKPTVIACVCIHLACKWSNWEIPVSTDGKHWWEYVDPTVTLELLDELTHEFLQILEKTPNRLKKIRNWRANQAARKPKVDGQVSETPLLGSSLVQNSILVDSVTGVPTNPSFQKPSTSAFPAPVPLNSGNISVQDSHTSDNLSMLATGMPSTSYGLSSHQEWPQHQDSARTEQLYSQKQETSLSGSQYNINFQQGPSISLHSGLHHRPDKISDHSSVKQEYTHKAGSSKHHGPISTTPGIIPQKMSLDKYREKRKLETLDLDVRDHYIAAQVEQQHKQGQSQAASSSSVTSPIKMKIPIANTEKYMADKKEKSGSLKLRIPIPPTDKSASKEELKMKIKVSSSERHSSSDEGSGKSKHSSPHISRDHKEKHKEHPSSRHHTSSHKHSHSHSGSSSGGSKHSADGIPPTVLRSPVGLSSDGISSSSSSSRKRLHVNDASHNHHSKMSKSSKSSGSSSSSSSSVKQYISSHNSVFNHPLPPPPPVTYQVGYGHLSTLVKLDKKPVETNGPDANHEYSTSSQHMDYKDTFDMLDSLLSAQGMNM
Chain of FGFR3 (P22607 23-806): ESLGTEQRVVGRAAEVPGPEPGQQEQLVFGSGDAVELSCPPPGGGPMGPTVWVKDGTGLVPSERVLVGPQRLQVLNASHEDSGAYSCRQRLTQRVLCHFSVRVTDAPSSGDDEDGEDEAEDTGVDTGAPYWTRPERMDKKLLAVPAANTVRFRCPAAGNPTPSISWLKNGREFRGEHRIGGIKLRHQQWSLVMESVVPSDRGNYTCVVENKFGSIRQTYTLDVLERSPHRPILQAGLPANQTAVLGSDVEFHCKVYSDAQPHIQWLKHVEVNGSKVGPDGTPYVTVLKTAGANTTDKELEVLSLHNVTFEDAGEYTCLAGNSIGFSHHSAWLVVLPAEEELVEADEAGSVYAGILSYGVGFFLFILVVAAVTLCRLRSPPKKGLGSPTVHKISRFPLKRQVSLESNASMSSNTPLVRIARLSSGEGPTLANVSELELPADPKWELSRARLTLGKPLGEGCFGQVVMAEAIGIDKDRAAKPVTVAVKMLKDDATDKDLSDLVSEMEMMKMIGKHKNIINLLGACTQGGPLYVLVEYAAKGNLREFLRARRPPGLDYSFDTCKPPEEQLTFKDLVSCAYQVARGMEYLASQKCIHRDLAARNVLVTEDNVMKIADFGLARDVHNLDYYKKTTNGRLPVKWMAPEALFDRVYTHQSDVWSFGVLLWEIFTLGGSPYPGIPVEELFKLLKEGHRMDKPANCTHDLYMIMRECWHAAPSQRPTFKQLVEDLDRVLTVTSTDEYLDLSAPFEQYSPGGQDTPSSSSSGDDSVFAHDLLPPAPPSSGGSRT
Chain of TIE2/TEK (Q02763 23-1124): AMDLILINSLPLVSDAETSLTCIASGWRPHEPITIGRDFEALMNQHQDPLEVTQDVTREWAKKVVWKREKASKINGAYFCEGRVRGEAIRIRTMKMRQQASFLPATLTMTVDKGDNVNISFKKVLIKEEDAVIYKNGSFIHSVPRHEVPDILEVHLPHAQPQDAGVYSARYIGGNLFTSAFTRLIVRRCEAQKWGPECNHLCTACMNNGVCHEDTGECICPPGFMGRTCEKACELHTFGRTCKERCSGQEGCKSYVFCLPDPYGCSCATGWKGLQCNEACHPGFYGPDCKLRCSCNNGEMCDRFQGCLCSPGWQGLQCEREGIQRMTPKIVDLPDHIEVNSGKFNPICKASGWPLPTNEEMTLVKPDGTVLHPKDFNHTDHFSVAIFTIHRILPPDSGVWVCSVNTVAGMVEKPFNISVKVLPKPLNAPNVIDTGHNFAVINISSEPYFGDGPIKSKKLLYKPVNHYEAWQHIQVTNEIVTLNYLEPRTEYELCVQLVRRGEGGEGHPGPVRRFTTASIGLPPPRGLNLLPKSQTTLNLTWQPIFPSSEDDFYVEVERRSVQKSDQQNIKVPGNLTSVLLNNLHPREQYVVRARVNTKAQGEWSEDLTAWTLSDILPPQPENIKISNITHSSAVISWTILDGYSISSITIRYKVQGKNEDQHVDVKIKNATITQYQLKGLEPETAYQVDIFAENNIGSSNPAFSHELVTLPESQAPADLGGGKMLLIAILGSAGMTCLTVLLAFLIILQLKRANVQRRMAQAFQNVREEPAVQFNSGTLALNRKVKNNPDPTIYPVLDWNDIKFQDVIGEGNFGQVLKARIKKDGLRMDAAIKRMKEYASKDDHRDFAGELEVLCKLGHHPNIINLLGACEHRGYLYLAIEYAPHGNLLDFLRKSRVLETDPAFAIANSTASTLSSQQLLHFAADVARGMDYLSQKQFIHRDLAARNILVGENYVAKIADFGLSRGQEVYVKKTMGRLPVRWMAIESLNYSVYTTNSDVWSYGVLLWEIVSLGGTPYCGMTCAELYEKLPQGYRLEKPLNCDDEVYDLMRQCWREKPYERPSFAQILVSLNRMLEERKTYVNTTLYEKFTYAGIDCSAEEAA
Chain of RSK3 (Q15349 whole entry): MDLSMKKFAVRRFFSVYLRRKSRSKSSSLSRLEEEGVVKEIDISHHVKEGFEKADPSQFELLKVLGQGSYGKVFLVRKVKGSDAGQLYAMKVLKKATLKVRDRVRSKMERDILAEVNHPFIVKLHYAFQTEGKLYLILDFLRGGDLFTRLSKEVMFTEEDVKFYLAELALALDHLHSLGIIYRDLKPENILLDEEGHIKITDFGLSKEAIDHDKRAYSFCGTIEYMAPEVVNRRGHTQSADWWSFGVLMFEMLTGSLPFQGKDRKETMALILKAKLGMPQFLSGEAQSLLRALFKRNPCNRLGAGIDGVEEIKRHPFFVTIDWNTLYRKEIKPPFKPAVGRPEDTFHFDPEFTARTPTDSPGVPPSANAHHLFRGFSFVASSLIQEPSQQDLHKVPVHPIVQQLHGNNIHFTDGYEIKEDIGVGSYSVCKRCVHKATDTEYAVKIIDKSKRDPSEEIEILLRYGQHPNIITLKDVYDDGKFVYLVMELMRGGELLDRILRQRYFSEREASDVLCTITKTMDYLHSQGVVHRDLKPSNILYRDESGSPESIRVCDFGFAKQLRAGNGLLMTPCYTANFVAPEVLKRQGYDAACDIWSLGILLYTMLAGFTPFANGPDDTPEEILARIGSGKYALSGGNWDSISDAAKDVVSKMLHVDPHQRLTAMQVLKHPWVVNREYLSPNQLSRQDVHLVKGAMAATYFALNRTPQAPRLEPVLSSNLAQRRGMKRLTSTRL

Row | Structure (SMILES) | remaining activity at 1 µM [1] [%] | remaining activity at 1 µM [2] [%] | remaining activity at 1 µM [3] [%] | remaining activity at 1 µM [4] [%] | remaining activity at 1 µM [5] [%] | % enzyme activity [6] [%] | % enzyme activity [7] [%]
1 | COc1cc(-c2cncc(-c3ccc(N4C[C@@H](C)N(C)[C@@H](C)C4)cc3)c2C)cc(F)c1C(N)=O [Compound 26c, 2-Fluoro-6-methoxy-4-(4-methyl-5-(4-((3R,5S)-3,4,5-trimethylpiperazin-1-yl)phenyl)pyridin-3-yl)benzamide] | 93.4 | 101 | 103 | 101 | 102 | 100.35 | 98.56
2 | COc1cc(-c2cncc(-c3ccc(N4CCN(C)CC4)cc3)c2C)cc(F)c1C(N)=O [Compound 26a, 2-Fluoro-6-methoxy-4-(4-methyl-5-(4-(4-methylpiperazin-1-yl)phenyl)pyridin-3-yl)benzamide] | 93.8 | 92.2 | 101 | 100 | 106 | 99.00 | 94.73
